In PubChem BioAssay AID1963867 (Molecular Pharmacology Branch, DTP, NCI, 2024):
pIC50: −log10 of the molar value. Activity calls are given as the source filed them. How the source made its calls: active means viability on the fitted dose curve at most 10% of control; inactive means the rest.

Test system: KRAS-mutant PDC tumor spheroid with HUVEC/MSC, viability
Test: Anticancer human tumor 327498-153-R-J2-PDC patient-derived uterine carcinosarcoma cell line growth inhibition [KRAS2]
Conditions: for pIC50: curve of first compound; for viability, T/C: stronger effect = lower value
In short: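 Combination screen of spheroid viability in tumor-cell co-cultures with endothelial (HUVEC) and mesenchymal stem cell stroma. Each agent was tested in half-log dilutions, topping at clinical Cmax or at 10 microM without a known Cmax.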

[1] = second compound 0.1 µM, first compound 0.01 µM
[2] = second compound 0.1 µM, first compound 0.0316 µM
[3] = second compound 0.1 µM, first compound 0.1 µM
[4] = second compound 0.1 µM, first compound 0.316 µM
[5] = second compound 0.1 µM, first compound 1 µM
[6] = second compound 0.1 µM, first compound 3.16 µM
[7] = second compound 0.316 µM, first compound 0.01 µM
[8] = second compound 0.316 µM, first compound 0.0316 µM
[9] = second compound 0.316 µM, first compound 0.1 µM
[10] = second compound 0.316 µM, first compound 0.316 µM
[11] = second compound 0.316 µM, first compound 1 µM
[12] = second compound 0.316 µM, first compound 3.16 µM
[13] = second compound 1 µM, first compound 0.01 µM
[14] = second compound 1 µM, first compound 0.0316 µM
[15] = second compound 1 µM, first compound 0.1 µM
[16] = second compound 1 µM, first compound 0.316 µM
[17] = second compound 1 µM, first compound 1 µM
[18] = second compound 1 µM, first compound 3.16 µM
[19] = second compound 3.16 µM, first compound 0.01 µM
[20] = second compound 3.16 µM, first compound 0.0316 µM
[21] = second compound 3.16 µM, first compound 0.1 µM
[22] = second compound 3.16 µM, first compound 0.316 µM
[23] = second compound 3.16 µM, first compound 1 µM
[24] = second compound 3.16 µM, first compound 3.16 µM
[25] = second compound 10 µM, first compound 0.01 µM
[26] = second compound 10 µM, first compound 0.0316 µM
[27] = second compound 10 µM, first compound 0.1 µM
[28] = second compound 10 µM, first compound 0.316 µM
[29] = second compound 10 µM, first compound 1 µM
[30] = second compound 10 µM, first compound 3.16 µM
[31] = second compound 0.1 µM, first compound 10 µM
[32] = second compound 0.316 µM, first compound 10 µM
[33] = second compound 1 µM, first compound 10 µM
[34] = second compound 3.16 µM, first compound 10 µM
[35] = second compound 10 µM, first compound 10 µM
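Wherever pIC50 is given: spheroids exposed to agents for seven days before reading.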
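Wherever viability, T/C is given: spheroids exposed to agents for seven days before reading; 100% = DMSO vehicle wells so lower means fewer viable cells.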

In the case of `CC(=O)OC12COC1CC(O)C1(C)C(=O)C(O)C3=C(C)C(OC(=O)C(O)C(NC(=O)OC(C)(C)C)c4ccccc4)CC(O)(C(OC(=O)c4ccccc4)C21)C3(C)C` (stereo not given) + CC1OCC2(CCN(c3cnc(Sc4ccnc(N)c4Cl)c(N)n3)CC2)C1N, the pIC50 (second compound 0.1 µM) was > 8.00, the pIC50 (second compound 0.316 µM) was > 8.00 and the pIC50 (second compound 1 µM) was > 8.00. The pIC50 (second compound 3.16 µM) was > 8.00, the pIC50 (second compound 10 µM) was > 8.00 and the viability, T/C [1] was 7.15%. For the same compound, the viability, T/C [2] was 5.15%, the viability, T/C [3] was 5.38% and the viability, T/C [4] was 6.78%. For the same compound, the viability, T/C [5] was 9.97%, the viability, T/C [6] was 11.7% and the viability, T/C [7] was 7.22%. For the same compound, the viability, T/C [8] was 4.87%, the viability, T/C [9] was 5.16% and the viability, T/C [10] was 6.51%. For the same compound, the viability, T/C [11] was 8.59%, the viability, T/C [12] was 12.2% and the viability, T/C [13] was 8.68%. For the same compound, the viability, T/C [14] was 6.9%, the viability, T/C [15] was 11% and the viability, T/C [16] was 6.11%. It also gave a viability, T/C [17] of 8.45%, a viability, T/C [18] of 11.8% and a viability, T/C [19] of 6.83%. It also gave a viability, T/C [20] of 6.18%, a viability, T/C [21] of 5.94% and a viability, T/C [22] of 6.88%. It also gave a viability, T/C [23] of 9.05%, a viability, T/C [24] of 10.5% and a viability, T/C [25] of 12.6%. The viability, T/C [26] was 6.42%, the viability, T/C [27] was 9.06% and the viability, T/C [28] was 5.82%. It also gave a viability, T/C [29] of 10.8% and a viability, T/C [30] of 10.4%.

`CN(C)C/C=C/C(=O)Nc1cc2c(Nc3ccc(F)c(Cl)c3)ncnc2cc1O[C@H]1CCOC1` + CC1OCC2(CCN(c3cnc(Sc4ccnc(N)c4Cl)c(N)n3)CC2)C1N was tested, and the pIC50 (second compound 0.1 µM) was < 7.00, the pIC50 (second compound 0.316 µM) was < 7.00 and the pIC50 (second compound 1 µM) was < 7.00. The pIC50 (second compound 3.16 µM) was > 9.50, the pIC50 (second compound 10 µM) was 9.37 and the viability, T/C (second compound 0.1 µM, first compound 0.000316 µM) was 75.6%. For the same compound, the viability, T/C (second compound 0.1 µM, first compound 0.001 µM) was 82%, the viability, T/C (second compound 0.1 µM, first compound 0.00316 µM) was 71% and the viability, T/C [1] was 71%. For the same compound, the viability, T/C [2] was 69.3%, the viability, T/C [3] was 56.4% and the viability, T/C (second compound 0.316 µM, first compound 0.000316 µM) was 62.8%. It also gave a viability, T/C (second compound 0.316 µM, first compound 0.001 µM) of 60.4%, a viability, T/C (second compound 0.316 µM, first compound 0.00316 µM) of 53.5% and a viability, T/C [7] of 53.1%. For the same compound, the viability, T/C [8] was 51.2%, the viability, T/C [9] was 53% and the viability, T/C (second compound 1 µM, first compound 0.000316 µM) was 106%. It also gave a viability, T/C (second compound 1 µM, first compound 0.001 µM) of 109%, a viability, T/C (second compound 1 µM, first compound 0.00316 µM) of 103% and a viability, T/C [13] of 104%. It also gave a viability, T/C [14] of 99%, a viability, T/C [15] of 91.7% and a viability, T/C (second compound 3.16 µM, first compound 0.000316 µM) of 44%. For the same compound, the viability, T/C (second compound 3.16 µM, first compound 0.001 µM) was 42.1%, the viability, T/C (second compound 3.16 µM, first compound 0.00316 µM) was 37% and the viability, T/C [19] was 40.7%. The viability, T/C [20] was 32.7%, the viability, T/C [21] was 31.9% and the outcome (second compound 10 µM, first compound 0.000316 µM) was “inactive”. The outcome (second compound 10 µM, first compound 0.001 µM) was “inactive”, the viability, T/C (second compound 10 µM, first compound 0.00316 µM) was 44% and the outcome [25] was “inactive”. The viability, T/C [26] was 37.3% and the viability, T/C [27] was 33.5%.

For `COC(=O)c1ccc2c(C(=Nc3ccc(N(C)C(=O)CN4CCN(C)CC4)cc3)c3ccccc3)c(O)[nH]c2c1` + CC1OCC2(CCN(c3cnc(Sc4ccnc(N)c4Cl)c(N)n3)CC2)C1N, the pIC50 (second compound 0.1 µM) was 6.25, the pIC50 (second compound 0.316 µM) was 6.80 and the pIC50 (second compound 1 µM) was > 7.50. The pIC50 (second compound 3.16 µM) was > 7.50, the pIC50 (second compound 10 µM) was > 7.50 and the viability, T/C [2] was 76%. The viability, T/C [3] was 68.8%, the viability, T/C [4] was 58% and the viability, T/C [5] was 43.8%. For the same compound, the viability, T/C [6] was 26%, the viability, T/C [31] was 26.8% and the viability, T/C [8] was 57.1%. It also gave a viability, T/C [9] of 50.7%, a viability, T/C [10] of 44.7% and a viability, T/C [11] of 34.5%. The viability, T/C [12] was 16.2%, the viability, T/C [32] was 18.8% and the viability, T/C [14] was 40.4%. For the same compound, the viability, T/C [15] was 41.9%, the viability, T/C [16] was 33.3% and the viability, T/C [17] was 20.6%. For the same compound, the viability, T/C [18] was 14.5%, the viability, T/C [33] was 11.4% and the viability, T/C [20] was 36%. It also gave a viability, T/C [21] of 33.4%, a viability, T/C [22] of 23.5% and a viability, T/C [23] of 14.1%. For the same compound, the viability, T/C [24] was 11%, the viability, T/C [34] was 10.1% and the viability, T/C [26] was 28%. For the same compound, the viability, T/C [27] was 27.9%, the viability, T/C [28] was 20.5% and the viability, T/C [29] was 13.3%. It also gave a viability, T/C [30] of 11.4% and a viability, T/C [35] of 9.36%.

With `O=C(c1cc(Cc2n[nH]c(=O)c3ccccc23)ccc1F)N1CCN(C(=O)C2CC2)CC1` + CC1OCC2(CCN(c3cnc(Sc4ccnc(N)c4Cl)c(N)n3)CC2)C1N the pIC50 (second compound 0.1 µM) was 5.78, the pIC50 (second compound 0.316 µM) was 5.97 and the pIC50 (second compound 1 µM) was 6.62. For the same compound, the pIC50 (second compound 3.16 µM) was > 7.50, the pIC50 (second compound 10 µM) was > 7.50 and the viability, T/C [2] was 81.3%. For the same compound, the viability, T/C [3] was 83.8%, the viability, T/C [4] was 75% and the viability, T/C [5] was 62.6%. The viability, T/C [6] was 34.8%, the viability, T/C [31] was 19.4% and the viability, T/C [8] was 70.4%. For the same compound, the viability, T/C [9] was 68.6%, the viability, T/C [10] was 62.6% and the viability, T/C [11] was 52.2%. It also gave a viability, T/C [12] of 31.7%, a viability, T/C [32] of 17.5% and a viability, T/C [14] of 104%. It also gave a viability, T/C [15] of 60.7%, a viability, T/C [16] of 44.2% and a viability, T/C [17] of 40.9%. For the same compound, the viability, T/C [18] was 21.9%, the viability, T/C [33] was 14.2% and the viability, T/C [20] was 40.5%. It also gave a viability, T/C [21] of 37.6%, a viability, T/C [22] of 38.1% and a viability, T/C [23] of 28.7%. For the same compound, the viability, T/C [24] was 17.9%, the viability, T/C [34] was 13.8% and the viability, T/C [26] was 36.7%. For the same compound, the viability, T/C [27] was 31.8%, the viability, T/C [28] was 27.1% and the viability, T/C [29] was 25.3%. It also gave a viability, T/C [30] of 15.9% and a viability, T/C [35] of 11.4%.
